Measured values from ChEMBL document CHEMBL3507680, “University of Dundee, Gates Library screen for HepG2 cell viability”.

assay: Human HepG2 cell viability assay in 384 well format; type: toxicity, cell-based; parameters: dose 125 nL, time 70.5 hour; concentration not given beside the values; settings: HepG2 cells, read-out: Inhibition

SMILES	cytotoxicity at 70.5 h [%]
CN(C)S(=O)(=O)N1CCCC(c2cccc(Cc3ccc(Cl)cc3)n2)C1 (stereo not drawn)	17.5
CCS(=O)(=O)N1CCCC(Cc2cnccn2)C1 (stereo not drawn)	-6.07
Cc1cn[nH]c1C1CCCCN1C(=O)CCc1ccc(F)cc1 (stereo not drawn)	-6.22
CNc1cc(CNC(=O)c2cccnc2)nc(-c2ccncc2)n1	-1.87
CCc1ccc(C(=O)N2CC[C@H](Oc3cccnc3C)[C@@H](O)CC2)cc1	14.4
Nc1cc(CCC2CN(Cc3cccc(C(=O)O)c3)CCO2)ccn1 (stereo not drawn)	-7.61
Cc1n[nH]cc1C(=O)N1CCCC(c2cccc(-n3ccnc3)n2)C1 (stereo not drawn)	-7.73
Cc1ccc(C(=O)N2CCCC(c3[nH]ncc3S(C)(=O)=O)C2)s1 (stereo not drawn)	10.6
O=C(Cc1cccs1)N1CCC(O)(CN2CCc3ccccc3C2)C1 (stereo not drawn)	-4.88
CCc1cc(C(=O)N2CCCC(c3[nH]ncc3S(C)(=O)=O)C2)no1 (stereo not drawn)	-7.59
Cc1ccsc1C(=O)N1CCC(O)(CN2CCc3ccccc3C2)C1 (stereo not drawn)	-6.62
CN(C(=O)C1CCOCC1)[C@@H]1CCC[C@@H](N2CCOCC2)[C@@H]1O	-5.89
CC(O)c1cnn(-c2ccccc2)c1 (stereo not drawn)	45.1
Cc1ncc(C(=O)N2CCCC2c2c(C)nn(C)c2C)s1 (stereo not drawn)	-2.56
C[C@H](O)c1cnn(-c2ccccc2)c1	-1.87
Cc1cc(C)c(C(=O)N(C)CCN(C)C(=O)OC(C)(C)C)[nH]1	6.57
Cc1cc(C(=O)N(C)CCN(C)C(=O)OC(C)(C)C)oc1C	-2.24
Cc1ccc(C(C)N(C)C(=O)c2ccc(=O)n(C)c2)s1 (stereo not drawn)	-0.24
CCc1ccsc1C(=O)NC(C#N)CC(C)C (stereo not drawn)	-2.59
CCN1CCCC(NC(=O)c2ccc(C)[nH]c2=O)C1 (stereo not drawn)	-8.86
Cc1ccc(C(=O)NC2CCN(C(C)C)C2)c(=O)[nH]1 (stereo not drawn)	-14.4
Cc1ccc(C(=O)NC2CCCN(C)C2)c(=O)[nH]1 (stereo not drawn)	-12.5
Cc1nn(C)c(C)c1S(=O)(=O)NCC1(C(N)=O)CCOCC1	-11.5
CC(C(=O)NCC(C)(C)c1ccc2c(c1)OCO2)n1ccnc1 (stereo not drawn)	-1.09

SMILES	cytotoxicity at 70.5 h [%]
CCOCCN1CCN(c2ccc(C#N)cn2)CC1	-9.92
Cc1nc(NCc2nncn2C2CC2)c2c(CC(C)C)csc2n1	20
Cc1cc(C)c(NC(=O)Nc2cnn(CC(O)CN(C)C)c2)c(C)c1 (stereo not drawn)	-13.2
N#Cc1ccc(Cl)cc1NCC1CC1	-5.4
Cc1nc(COC(=O)c2cccc3c2OCCO3)cs1	-11.2
CS(=O)(=O)N1CCC(CNc2c(Cl)cccc2C#N)CC1	-1.91
Cc1cc(C)c(CNc2cnn(CC(O)CN(C)C)c2)c(C)c1 (stereo not drawn)	-11.8
N#CC1COCCN1C(=O)c1ccc2[nH]ccc2c1 (stereo not drawn)	0.401
CCOCCN1CCN(c2ccc(C#N)cn2)CC1CC (stereo not drawn)	1.12
CCOCCN1CCN(c2ncccc2C#N)CC1CC (stereo not drawn)	-3.73
Cc1oc(-c2ccco2)nc1CN1CCc2cnc(C(C)C)nc2C1	-12
CC(NCc1cccc(COC2CCCC2)c1)c1cnn(C)c1 (stereo not drawn)	-3.04
O=C(NC1CC1)c1ccc(SCc2cscn2)cc1	-9.79
Cc1noc(C(C)Nc2ccc3oc(C)nc3c2)n1 (stereo not drawn)	11.9
N#Cc1ccccc1CN1CCc2sccc2C1	-8.96
CC(CNC(=O)c1cccnc1O)Cn1cccn1 (stereo not drawn)	-7.01
Cc1ccc(CNC(=O)Nc2nnc(C3CC3)s2)n1C	-0.672
CCC(C#N)NC(=O)CCNC(=O)C(C)(C)C (stereo not drawn)	0.625
COc1cc(Cl)ccc1C(=O)NCc1n[nH]c(C)n1	1.46
Cc1ccccc1C(C#N)NC(=O)c1cccc2c1OCCO2 (stereo not drawn)	11
Cc1[nH]nc2ncc(C(=O)N3CCN(CC(O)C(C)(C)C)CC3)cc12 (stereo not drawn)	-1.93
COC(C)c1noc(CN(C)c2nccnc2C#N)n1 (stereo not drawn)	1.72
CC(CNS(N)(=O)=O)Oc1ccc(Cl)cc1 (stereo not drawn)	1.53
CN(C)c1nc(CNC(=O)NC2CCc3ccccc32)cs1 (stereo not drawn)	-0.66

SMILES	cytotoxicity at 70.5 h [%]
c1ccc2oc(N3CCn4c(nnc4C4CC4)C3)nc2c1	-2.1
CC(C)N1CCC(O)(CNC(=O)CC2OCCc3ccccc32)CC1 (stereo not drawn)	4.01
CN(c1nc(Cn2cc(Br)ccc2=O)cs1)C1CC1	-4.85
O=C(CN1CCCS1(=O)=O)Nc1ccc(OC2CCCC2)cc1	-0.244
CSc1c[nH]nc1NS(=O)(=O)c1cc(F)ccc1Cl	-0.455
COC(C)c1noc(CN(C)c2ncccn2)n1 (stereo not drawn)	-1.92
CN(Cc1ccc(C(=O)O)cc1)C(=O)c1sccc1OC(F)F	3.59
CC(C)c1nnc2n1CCN(c1nc3ccccc3o1)C2	-10.1
CN(c1nc(Cn2cnccc2=O)cs1)C1CC1	-4.18
CS(=O)(=O)C1(CNCc2cccc(-n3cccn3)c2)CCOCC1	12.5
CCn1cnnc1CCNS(=O)(=O)N1CCCC1c1ccco1 (stereo not drawn)	-9.13
CCc1noc(C(C)Sc2nnc(C3CC3)n2CC(N)=O)n1 (stereo not drawn)	-0.541
O=C(NCC1CCS(=O)(=O)C1)N(Cc1ccccn1)C1CC1 (stereo not drawn)	-6.34
O=C(NCc1cc(-c2ccccc2)no1)NC1CCCCNC1=O (stereo not drawn)	4.05
O=C(NCC(=O)N1CCCCC1)c1sccc1C1CC1	7.84
COc1ccccc1C(C)(C)NC(=O)c1cc(NC(C)=O)ccc1F	-6.53
CCc1cc(=O)[nH]c(-c2ccc(NCCC(C)O)nc2)n1 (stereo not drawn)	-5.98
Cc1nnc(N2CCc3cnc(C(C)C)nc3C2)c(C#N)c1C	1.1
CCOC(=O)C1(O)CCN(C(=O)Nc2cccc(F)c2)CC1	4.4
Cc1occc1CNc1ncccc1S(N)(=O)=O	-3.76
CC(C)c1nnc(CN2CC(n3cccn3)Cc3ccccc32)o1 (stereo not drawn)	-4.11
CCn1cnnc1CNS(=O)(=O)N1CCCC1c1ccc(C)o1 (stereo not drawn)	-4.31
O=C(NCC(=O)N1CCN(c2ccccc2)CC1)c1sccc1C1CC1	-2.46
Cn1cc(C2CCCN2C(=O)Cc2coc(-c3ccccc3)n2)cn1 (stereo not drawn)	-7.27

SMILES	cytotoxicity at 70.5 h [%]
O=C(c1ccccc1F)N1CCN(CCCn2cncn2)CC1	-5.46
Cc1cc(NC(=O)N2CCCC(CO)C2)nn1-c1ccccc1Cl (stereo not drawn)	-1.91
Cc1ccc(-c2cc(CNCCn3cc(C)cn3)on2)cc1	-1.34
Cc1ccoc1C(=O)NC(CC(C)C)C(=O)N1CCC(CO)CC1 (stereo not drawn)	27.4
CNC(=O)CN1CCN(C(=O)Nc2ccc(C)s2)CC1	-1.2
Cn1c(NCCC(=O)N2CCCC2)c(C#N)c(=O)n(C)c1=O	3.58
Cn1c(NCCN2CCCCCC2)c(C#N)c(=O)n(C)c1=O	-7.25
CCNc1c(C#N)c(=O)n(C)c(=O)n1C	-8.97
CC(C)NC(=O)C(C(C)C)n1cnc2cc(F)c(F)cc21 (stereo not drawn)	-7.62
CC(=O)N1CCN(CCNc2snc(Cl)c2C#N)CC1	-5.16
CC(=O)NC1(C(=O)N2CCCN(c3cccnn3)CC2)CCCCC1	-5.29
CC(Nc1ccc(CN2CCCC2=O)cc1)c1ccc(C#N)cc1 (stereo not drawn)	-5.25
CCC(=O)NCC(=O)Nc1ncc(I)cc1C	0.64
Cc1ccc(NC(=O)N2CCN(C(=O)CC3CCCC3)CC2)s1	-10.2
Cc1noc(C)c1NS(=O)(=O)c1cc(Cl)c(Cl)c(C(=O)O)c1	-9.2
O=C(N1CCc2ccccc2CC1)C1(O)Cc2ccccc2C1	-2.64
CC(C)C(C(=O)NCC1CC1)n1cnc2cc(F)c(F)cc21 (stereo not drawn)	-1.42
CC(C)C(C(=O)NC1CCOCC1)n1cnc2cc(F)c(F)cc21 (stereo not drawn)	1.78
Clc1cccnc1N1CCC(NCc2cccc3cn[nH]c23)C1 (stereo not drawn)	-4.87
O=C(CNC(=O)C1CCCC1)NCc1cnn(-c2ccc(F)cc2F)c1	-1.74
CCOC(C)C(=O)Nc1ccc2c(ccn2CC)c1 (stereo not drawn)	1.36
O=C(NCc1cnn(-c2ccc(F)cc2F)c1)C1CCCO1 (stereo not drawn)	-1.57
Fc1ccc(C2(NCc3noc(C4CC4)n3)CCC2)cc1	8.34
CC(NCc1ccccc1CN1CCCC1=O)c1ccc(C#N)cc1 (stereo not drawn)	4.5

SMILES	cytotoxicity at 70.5 h [%]
CN1CCC(N2CCOC3(CCCC3)C2)C1=O (stereo not drawn)	5.41
O=C(NCCCN1CCC(OC2CCCCC2)CC1)C1CCCC1	-0.377
CNC(=O)CSC(C)c1ccc(Br)cc1 (stereo not drawn)	2.63
CN(C)C(=O)CS(=O)(=O)Cc1ccn(-c2cccc(F)c2)n1	-3.31
CN(C1CCCCC1)S(=O)(=O)NC1CCN(c2ncccn2)CC1	-7.52
CC1CN(c2ncnc3cccc(F)c23)CCO1 (stereo not drawn)	10.6
O=C1CC(N(C(=O)c2ccc(-n3cccc3)cc2)C2CC2)C(=O)N1 (stereo not drawn)	-4.68
CC(C)(C(=O)NCCCC(N)=O)c1cccc(Br)c1	-8.19
O=C(Nc1cccc(F)c1)C1CCN(Cc2noc(C3CC3)n2)CC1	-13.9
O=C(Nc1cccc(F)c1)N1CCN(Cc2noc(C3CC3)n2)CC1	-13.8
Cc1noc(C)c1CC(=O)N1CCCC(c2noc(C(C)C)n2)C1 (stereo not drawn)	-9.31
CCn1nc(C)c(CNC(=O)NCC(C)(O)c2ccc(C)o2)c1C (stereo not drawn)	-13.6
CC1COc2ccccc2N1C(=O)c1ccnc(-n2cncn2)c1 (stereo not drawn)	9.86
CCn1ccnc1S(=O)(=O)Cc1c(C)cc(C)c(C(C)=O)c1C	-6.82
CC(CCc1ccccc1F)C(=O)NS(C)(=O)=O (stereo not drawn)	-8.18
CCn1nc(C)c(CNC(=O)NCC(C)(O)c2ccco2)c1C (stereo not drawn)	-1.92
O=C(Nc1cnn(Cc2ccc(Cl)cc2)c1)N[C@@H]1C=C[C@H](CO)C1	-7.72
Cc1ccn(-c2ccc(N3CCN(Cc4ccccn4)CC3)nn2)n1	-7.77
CC1CN(S(=O)(=O)c2cc(S(C)(=O)=O)ccc2Br)c2cccnc2O1 (stereo not drawn)	1.23
CC(C)c1nc(C2CCCN(C(=O)CS(=O)(=O)C(C)C)C2)no1 (stereo not drawn)	-7.77
CC(C)c1nn(C)c(Cl)c1CNCC(=O)N1CCN(C)CC1	-4.93
Fc1ccc(OCCCNC2=NCCN2)cc1	-14.3
